Experimental findings from patent publication US10829520B2, “Beta-hairpin peptidomimetics” (POLYPHOR AG, priority 2015, dated 2020) are described below.

The structures appear in SMILES notation. Where a SMILES comes first, the peptide text is derived from it. Bridges are numbered along the chain shown (N, C = ends). [ ]: non-standard residue; d: D form. dDab = NCC[C@@H](N)C(=O)O; Nle = CCCC[C@H](N)C(=O)O; Orn = NCCC[C@H](N)C(=O)O; Dab = NCC[C@H](N)C(=O)O; Dap = NC[C@H](N)C(=O)O; Sar = CNCC(=O)O

Type in all cases: cell-based
The subject of data set [1] is Acinetobacter baumannii DSM 30008. Conditions: DSM 30008. The method in brief:
(§1)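 CLSI broth microdilution; MH-II (cation-adjusted) + 0.002% P-80; ~10^6 CFU/mL inoculum; peptide two-fold serial dilutions; 18-20 h, 35° C; MIC = no visible growth, μg/mL.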

Data set [2] concerns Klebsiella pneumoniae 968733. The following applies: 968733.
For data set [3], the system named is Klebsiella pneumoniae SSI #3010. Conditions: SSI #3010. In outline:
as §1

In the next data set the test system is Escherichia coli 926415. Conditions: 926415.
Data set [4] has as its system Acinetobacter baumannii 872842. Conditions: 872842.
The subject of data set [5] is Pseudomonas aeruginosa ATCC 27853. The following applies: ATCC 27853. In outline:
as §1

In data set [6] the test system is Escherichia coli ATCC 25922. Conditions: ATCC 25922. The method in brief:
as §1

Data set [7] relates to human red blood cells (hRBC). Nature of the data set: Hemolysis of human red blood cells. The following applies: red cells of human, 1 h, 100 μg/mL. The method in brief: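 Each peptide was tested at a single concentration, 100 μg/mL. Erythrocytes (20% v/v) were incubated 1 h at 37° C. under shaking at 300 rpm, centrifuged, and released hemoglobin measured at OD540. Controls were PBS containing 0.001% acetic acid (0%) and Triton X-100 (100%).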

`CC(C)C[C@@H]1NC(=O)[C@@H](CC(C)C)NC(=O)[C@H](CCN)NC(=O)[C@@H](NC(=O)[C@H](CCN)NC(=O)[C@@H](CCN)NC(=O)[C@@H](NC(=O)[C@H](CCCN)NC(=O)[C@@H]2CSSC[C@H](NC(=O)[C@@H](N)Cc3c[nH]c4ccccc34)C(=O)N[C@@H](C(C)C)C(=O)N[C@@H](CO)C(=O)N[C@@H](CO)C(=O)N3CCC[C@@H]3C(=O)N[C@@H](Cc3ccc(O)cc3)C(=O)N[C@@H](C(C)C)C(=O)N[C@@H](CN)C(=O)N[C@@H](Cc3ccc(O)cc3)C(=O)N2)[C@@H](C)O)CCNC(=O)[C@H]([C@@H](C)O)NC(=O)[C@H](CCN)NC(=O)[C@H](CCN)NC1=O` [Ex. 149] (H-WCVSS[dP]YV[Dap]YC[Orn]T[dDab][Dab][Dab][Dab][dL]L[Dab][Dab]T; disulfide 2-11; lactam 16-C): in data set [1], the “Acinetobacter baumannii DSM 30008 MIC” value came out at 0.5 µg/mL. For the same molecule, the “Klebsiella pneumoniae 968733 MIC” value in data set [2] was 0.5 µg/mL. Besides, in data set [3], the “Klebsiella pneumoniae SSI #3010 MIC” value came to 0.25 µg/mL. In the data set with Escherichia coli 926415, the “Escherichia coli 926415 MIC” value was determined as 0.125 µg/mL. Further, the “Acinetobacter baumannii 872842 MIC” value in data set [4] was determined as 0.0625 µg/mL. The “Pseudomonas aeruginosa ATCC 27853 MIC” value in data set [5] is 0.5 µg/mL. Further, the “Escherichia coli ATCC 25922 MIC” value in data set [6] came out at 0.5 µg/mL. In addition, the “Hemolysis at 100 μg/mL” value in data set [7] was <1%.
With `CCCC[C@@H]1NC(=O)[C@@H]2CCCN2C(=O)[C@H]2CCCN2C(=O)[C@H](CO)NC(=O)[C@H](CO)NC(=O)[C@H](C(C)C)NC(=O)[C@@H](NC(=O)[C@@H](N)Cc2c[nH]c3ccccc23)CSSC[C@@H](C(=O)N(C)CC(=O)N[C@@H](CCN)C(=O)N[C@H](C(=O)N[C@@H](CCN)C(=O)N[C@H]2CCNC(=O)[C@H]([C@@H](C)O)NC(=O)[C@H](CCN)NC(=O)[C@H](CCN)NC(=O)[C@H](CC(C)C)NC(=O)[C@@H](CC(C)C)NC(=O)[C@H](CCN)NC2=O)[C@@H](C)O)NC(=O)[C@H](C)NC(=O)[C@H](CN)NC1=O` [Ex. 150] (H-WCVSS[dP]P[Nle][Dap]AC[Sar][Dab]T[Dab][Dab][Dab][dL]L[Dab][Dab]T; disulfide 2-11; lactam 16-C), in data set [1], the “Acinetobacter baumannii DSM 30008 MIC” value turned out to be 0.25 µg/mL. Moreover, the “Klebsiella pneumoniae 968733 MIC” value in data set [2] came to 8 µg/mL. Besides, the “Klebsiella pneumoniae SSI #3010 MIC” value in data set [3] was found to be 0.25 µg/mL. The “Escherichia coli 926415 MIC” value in the data set on Escherichia coli 926415 turned out to be 0.5 µg/mL. Besides, in data set [4], the “Acinetobacter baumannii 872842 MIC” value came out at 0.25 µg/mL. In addition, the “Pseudomonas aeruginosa ATCC 27853 MIC” value in data set [5] was found to be 1 µg/mL. Also, the “Escherichia coli ATCC 25922 MIC” value in data set [6] was 0.125 µg/mL. The “Hemolysis at 100 μg/mL” value in data set [7] is <1%.
With `CC(C)C[C@@H]1NC(=O)[C@@H](CC(C)C)NC(=O)[C@H](CCN)NC(=O)[C@@H](NC(=O)[C@H](CCN)NC(=O)[C@H](CCN)NC(=O)[C@@H](NC(=O)[C@H](CCCN)NC(=O)[C@@H]2CSSC[C@H](NC(=O)[C@@H](N)Cc3c[nH]c4ccccc34)C(=O)N[C@@H](C(C)C)C(=O)N[C@@H](Cc3ccc(O)cc3)C(=O)N[C@@H](CO)C(=O)N3CCC[C@@H]3C(=O)N3CCC[C@H]3C(=O)N[C@@H](CC(C)C)C(=O)N[C@@H](CC(=O)O)C(=O)N[C@@H](Cc3ccc(O)cc3)C(=O)N2)[C@@H](C)O)CCNC(=O)[C@H]([C@@H](C)O)NC(=O)[C@H](CCN)NC(=O)[C@H](CCN)NC1=O` [Ex. 151] (H-WCVYS[dP]PLDYC[Orn]T[Dab][Dab][Dab][Dab][dL]L[Dab][Dab]T; disulfide 2-11; lactam 16-C), in data set [1], the “Acinetobacter baumannii DSM 30008 MIC” value was found to be 1 µg/mL. In data set [2], the “Klebsiella pneumoniae 968733 MIC” value was 8 µg/mL. For the same molecule, the “Klebsiella pneumoniae SSI #3010 MIC” value in data set [3] stood at 1 µg/mL. For the same molecule, the “Escherichia coli 926415 MIC” value in the data set on Escherichia coli 926415 worked out at 2 µg/mL. Further, the “Acinetobacter baumannii 872842 MIC” value in data set [4] was 0.5 µg/mL. The “Pseudomonas aeruginosa ATCC 27853 MIC” value in data set [5] worked out at 0.5 µg/mL. For the same molecule, in data set [6], the “Escherichia coli ATCC 25922 MIC” value is 0.25 µg/mL. For the same molecule, the “Hemolysis at 100 μg/mL” value in data set [7] is listed as <1%.
As to `CC(C)C[C@@H]1NC(=O)[C@@H](CC(C)C)NC(=O)[C@H](CCN)NC(=O)[C@@H](NC(=O)[C@H](CCN)NC(=O)[C@@H](NC(=O)[C@H](CCN)NC(=O)CN(C)C(=O)[C@@H]2CSSC[C@H](NC(=O)[C@@H](N)Cc3c[nH]c4ccccc34)C(=O)N[C@@H](C(C)C)C(=O)N[C@@H](CCCNC(=N)N)C(=O)N[C@@H](CCCNC(=N)N)C(=O)N3CCC[C@@H]3C(=O)N3CCC[C@H]3C(=O)N[C@@H](CC(C)C)C(=O)N[C@@H](CO)C(=O)N[C@@H](Cc3ccc(O)cc3)C(=O)N2)[C@@H](C)O)CCNC(=O)[C@H]([C@@H](C)O)NC(=O)[C@H](CCN)NC(=O)[C@H](CCN)NC1=O` [Ex. 152] (H-WCVRR[dP]PLSYC[Sar][Dab]T[Dab][Dab][Dab][dL]L[Dab][Dab]T; disulfide 2-11; lactam 16-C), the “Acinetobacter baumannii DSM 30008 MIC” value in data set [1] amounted to 0.25 µg/mL. Further, the “Klebsiella pneumoniae 968733 MIC” value in data set [2] came to 8 µg/mL. In addition, in data set [3], the “Klebsiella pneumoniae SSI #3010 MIC” value was found to be 0.25 µg/mL. The “Escherichia coli 926415 MIC” value in the data set with Escherichia coli 926415 turned out to be 2 µg/mL. In data set [4], the “Acinetobacter baumannii 872842 MIC” value came to 0.125 µg/mL. Moreover, the “Pseudomonas aeruginosa ATCC 27853 MIC” value in data set [5] amounted to 2 µg/mL. Besides, the “Escherichia coli ATCC 25922 MIC” value in data set [6] is 0.25 µg/mL. For the same molecule, the “Hemolysis at 100 μg/mL” value in data set [7] was 1%.
Take `CC(C)C[C@@H]1NC(=O)[C@H](CO)NC(=O)[C@H](Cc2ccc(O)cc2)NC(=O)[C@@H]2CCCN2C(=O)[C@H]2CCCN2C(=O)[C@H](Cc2ccc(O)cc2)NC(=O)[C@H](C)NC(=O)[C@H](C(C)C)NC(=O)[C@@H](NC(=O)[C@@H](N)Cc2c[nH]c3ccccc23)CSSC[C@@H](C(=O)NCC(=O)N[C@@H](CCN)C(=O)N[C@H](C(=O)N[C@@H](CCN)C(=O)N[C@H]2CCNC(=O)[C@H]([C@@H](C)O)NC(=O)[C@H](CCN)NC(=O)[C@H](CCN)NC(=O)[C@H](CC(C)C)NC(=O)[C@@H](CC(C)C)NC(=O)[C@H](CCN)NC2=O)[C@@H](C)O)NC1=O` [Ex. 153] (H-WCVAY[dP]PYSLCG[Dab]T[Dab][Dab][Dab][dL]L[Dab][Dab]T; disulfide 2-11; lactam 16-C): in data set [1], the “Acinetobacter baumannii DSM 30008 MIC” value was 0.125 µg/mL. In data set [2], the “Klebsiella pneumoniae 968733 MIC” value turned out to be 0.0625 µg/mL. For the same molecule, in data set [3], the “Klebsiella pneumoniae SSI #3010 MIC” value is 0.0625 µg/mL. For the same molecule, in the data set with Escherichia coli 926415, the “Escherichia coli 926415 MIC” value is 0.125 µg/mL. In data set [4], the “Acinetobacter baumannii 872842 MIC” value is 0.03125 µg/mL. In data set [5], the “Pseudomonas aeruginosa ATCC 27853 MIC” value was 0.5 µg/mL. For the same molecule, the “Escherichia coli ATCC 25922 MIC” value in data set [6] was determined as 0.0625 µg/mL. Further, the “Hemolysis at 100 μg/mL” value in data set [7] is reported as <1%.
`CC(C)C[C@@H]1NC(=O)[C@H](CO)NC(=O)[C@H](CC(C)C)NC(=O)[C@@H]2CCCN2C(=O)[C@H]2CCCN2C(=O)[C@H]([C@@H](C)O)NC(=O)[C@H](C)NC(=O)[C@H](C(C)C)NC(=O)[C@@H](NC(=O)[C@@H](N)CC(C)C)CSSC[C@@H](C(=O)NCC(=O)N[C@@H](CCN)C(=O)N[C@H](C(=O)N[C@@H](CCN)C(=O)N[C@H]2CCNC(=O)[C@H]([C@@H](C)O)NC(=O)[C@H](CCN)NC(=O)[C@H](CCN)NC(=O)[C@H](CC(C)C)NC(=O)[C@@H](CC(C)C)NC(=O)[C@H](CCN)NC2=O)[C@@H](C)O)NC1=O` [Ex. 154] (H-LCVAT[dP]PLSLCG[Dab]T[Dab][Dab][Dab][dL]L[Dab][Dab]T; disulfide 2-11; lactam 16-C): the “Acinetobacter baumannii DSM 30008 MIC” value in data set [1] was found to be 0.0625 µg/mL. Besides, the “Klebsiella pneumoniae 968733 MIC” value in data set [2] came to 0.25 µg/mL. In data set [3], the “Klebsiella pneumoniae SSI #3010 MIC” value is 0.0625 µg/mL. For the same molecule, the “Escherichia coli 926415 MIC” value in the data set with Escherichia coli 926415 came out at 0.125 µg/mL. For the same molecule, the “Acinetobacter baumannii 872842 MIC” value in data set [4] was 0.03125 µg/mL. For the same molecule, the “Pseudomonas aeruginosa ATCC 27853 MIC” value in data set [5] turned out to be 1 µg/mL. The “Escherichia coli ATCC 25922 MIC” value in data set [6] was determined as 0.0625 µg/mL. Further, the “Hemolysis at 100 μg/mL” value in data set [7] was <1%.
Regarding `CC(C)C[C@@H]1NC(=O)[C@H](CO)NC(=O)[C@H](Cc2ccc(O)cc2)NC(=O)[C@@H]2CCCN2C(=O)[C@H]2CCCN2C(=O)[C@H](C(C)C)NC(=O)[C@H](C)NC(=O)[C@H](C(C)C)NC(=O)[C@@H](NC(=O)[C@@H](N)C(C)C)CSSC[C@@H](C(=O)NCC(=O)N[C@@H](CCN)C(=O)N[C@H](C(=O)N[C@@H](CCN)C(=O)N[C@H]2CCNC(=O)[C@H]([C@@H](C)O)NC(=O)[C@H](CCN)NC(=O)[C@H](CCN)NC(=O)[C@H](CC(C)C)NC(=O)[C@@H](CC(C)C)NC(=O)[C@H](CCN)NC2=O)[C@@H](C)O)NC1=O` [Ex. 155] (H-VCVAV[dP]PYSLCG[Dab]T[Dab][Dab][Dab][dL]L[Dab][Dab]T; disulfide 2-11; lactam 16-C), in data set [1], the “Acinetobacter baumannii DSM 30008 MIC” value was found to be 0.03125 µg/mL. The “Klebsiella pneumoniae 968733 MIC” value in data set [2] worked out at 0.5 µg/mL. For the same molecule, the “Klebsiella pneumoniae SSI #3010 MIC” value in data set [3] worked out at 0.0625 µg/mL. The “Escherichia coli 926415 MIC” value with Escherichia coli 926415 worked out at 0.25 µg/mL. Moreover, the “Acinetobacter baumannii 872842 MIC” value in data set [4] amounted to 0.0625 µg/mL. The “Pseudomonas aeruginosa ATCC 27853 MIC” value in data set [5] was found to be 1 µg/mL. Moreover, the “Escherichia coli ATCC 25922 MIC” value in data set [6] is 0.0625 µg/mL. In addition, the “Hemolysis at 100 μg/mL” value in data set [7] was <1%.
